Experimental data as given in ChEMBL document CHEMBL6127136, “Discovery of 1-(Phenylsulfonyl)-1,2,3,4-tetrahydroquinoline Derivative as Orally Bioavailable and Safe RORγt Inverse Agonists for Potential Treatment of Rheumatoid Arthritis” (J Med Chem, 2024).
Active and inactive are the calls of the source. The calls are words filed in the database; no cut-off is given here.

What was measured:
[1] = Toxicity in imiquimod-induced psoriasis-like skin inflammation Balb/c mouse model assessed as change in body weight at 10 mg/kg, IG preadministered with IMQ for 3 days followed by compound administration from day 4 and measured on day 14; format: organism-based; settings: in vivo, po, 264 h, time 11 day
[2] = Half-life in male DBA/1 mouse at 5 mg/kg, iv measured after 24 hrs by HPLC analysis; format: ADME, organism-based; settings: in vivo
[3] = AUC (0 to infinity) in male DBA/1 mouse at 20 mg/kg, po measured after 24 hrs by HPLC analysis; format: ADME, organism-based; settings: in vivo
[4] = AUC (0 to infinity) in male DBA/1 mouse at 5 mg/kg, iv measured after 24 hrs by HPLC analysis; format: ADME, organism-based; settings: in vivo
[5] = target: T1, Nuclear receptor ROR-gamma (Homo sapiens, UniProt P51449); test: Inverse agonist activity at GAL4 DNA-binding domain fused RORgamma (unknown origin) transfected in HEK293T cells co-transfected with GAL4-promoter driven luciferase reporter gene assessed as inhibition of RORgammat transcription incubated for 18 to 20 hrs by plate reader analysis; format: cell-based
T1 sequence (P51449 whole entry): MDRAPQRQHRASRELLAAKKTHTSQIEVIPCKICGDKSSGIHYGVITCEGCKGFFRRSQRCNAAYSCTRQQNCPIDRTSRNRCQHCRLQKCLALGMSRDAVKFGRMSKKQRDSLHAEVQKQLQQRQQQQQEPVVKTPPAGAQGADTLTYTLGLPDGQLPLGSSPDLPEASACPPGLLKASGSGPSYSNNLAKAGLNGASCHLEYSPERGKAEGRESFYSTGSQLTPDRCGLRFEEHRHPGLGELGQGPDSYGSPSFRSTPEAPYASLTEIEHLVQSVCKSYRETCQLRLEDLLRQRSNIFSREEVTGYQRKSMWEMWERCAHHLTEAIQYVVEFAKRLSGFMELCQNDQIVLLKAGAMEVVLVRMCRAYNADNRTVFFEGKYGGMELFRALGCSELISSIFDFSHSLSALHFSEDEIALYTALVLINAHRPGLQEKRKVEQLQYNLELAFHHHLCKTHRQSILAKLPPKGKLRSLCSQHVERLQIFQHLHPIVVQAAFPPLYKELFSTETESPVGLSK

Mus musculus [6] = test: Antiarthritic activity in chicken type II collagen-induced arthritis DBA/1 mouse model assessed as reduction in hind paw thickness at 20 mg/kg/day, po administered for 2 weeks by H and E staining based analysis; format: functional, organism-based
[7] = Clearance in male DBA/1 mouse at 5 mg/kg, iv measured after 24 hrs by HPLC analysis; format: ADME, organism-based; settings: in vivo
Mus musculus [8] = test: (§1) Antiinflammatory activity against imiquimod-induced psoriasis-like skin inflammation in Balb/c mouse model assessed as reduction in mononuclear cell infiltration in skin at 10 mg/kg, IG preadministered with IMQ for 3 days followed by compound administration from day 4 and measured on day 14 by H and E staining based analysis; format: functional, organism-based; settings: time 11.0 day
[9] = Toxicity in chicken type II collagen-induced arthritis DBA/1 mouse model assessed as body weight loss at 20 mg/kg/day, po measured after 42 days; format: organism-based; settings: in vivo, 1008 h, time 42 day
Mus musculus [10] = test: as §1, with “decrease” for “reduction”, “IL-17A expression” for “mononuclear cell infiltration”, “immunohistochemical” for “H and E staining based”; format: functional, organism-based; settings: time 11.0 day
Mus musculus [11] = test: Antiarthritic activity in chicken type II collagen-induced arthritis DBA/1 mouse model assessed as reduction in fore paw swelling at 20 mg/kg/day, po administered for 2 weeks by H and E staining based analysis; format: functional, organism-based
Mus musculus [12] = test: as §1, with “decrease” for “reduction”, “IL-17F expression” for “mononuclear cell infiltration”, “immunohistochemical” for “H and E staining based”; format: functional, organism-based; settings: time 11.0 day
[13] = Tmax in male DBA/1 mouse at 5 mg/kg, iv measured after 24 hrs by HPLC analysis; format: ADME, organism-based; settings: in vivo
[14] = Toxicity in chicken type II collagen-induced arthritis DBA/1 mouse model assessed as morphological changes in thymocytes at 20 mg/kg/day, po administered for 2 weeks by H and E staining based analysis; format: organism-based; settings: in vivo, 336 h
Mus musculus [15] = test: Antiarthritic activity in chicken type II collagen-induced arthritis DBA/1 mouse model assessed as reduction in fore paw erythema at 20 mg/kg/day, po administered for 2 weeks by H and E staining based analysis; format: functional, organism-based
Mus musculus [16] = test: Antiarthritic activity in chicken type II collagen-induced arthritis DBA/1 mouse model assessed as reduction in fore paw thickness at 20 mg/kg/day, po administered for 2 weeks by H and E staining based analysis; format: functional, organism-based
Mus musculus [17] = test: Antiarthritic activity in chicken type II collagen-induced arthritis DBA/1 mouse model assessed as reduction in clinical score at 20 mg/kg/day, po measured after 42 days; format: functional, organism-based; settings: time 42.0 day
Mus musculus [18] = test: as §1, with “decrease” for “reduction”, “dermal telangiectasia” for “mononuclear cell infiltration in skin”; format: functional, organism-based; settings: time 11.0 day
[19] = Toxicity in chicken type II collagen-induced arthritis DBA/1 mouse model assessed as signs of thymic enlargement at 20 mg/kg/day, po administered for 2 weeks by H and E staining based analysis; format: organism-based; settings: in vivo, 336 h
[20] = target: T1, Nuclear receptor ROR-gamma; test: Inverse agonist activity at N-terminal 6-His-tagged/APC-labeled human RORgammat LBD extracted from Escherichia coli assessed as inhibition of europium-labeled SRC-1 recruitment incubated for 3 hrs by TR-FRET analysis
[21] = AUC (0 to t) in male DBA/1 mouse at 5 mg/kg, iv measured after 24 hrs by HPLC analysis; format: ADME, organism-based; settings: in vivo
Mus musculus [22] = test: as §1, with “inflammatory” for “mononuclear”; format: functional, organism-based; settings: time 11.0 day
Mus musculus [23] = test: Antiarthritic activity in chicken type II collagen-induced arthritis DBA/1 mouse model assessed as reduction in hind paw erythema at 20 mg/kg/day, po administered for 2 weeks by H and E staining based analysis; format: functional, organism-based
[24] = Toxicity in chicken type II collagen-induced arthritis DBA/1 mouse model assessed as signs of lymphoma at 20 mg/kg/day, po administered for 2 weeks by H and E staining based analysis; format: organism-based; settings: in vivo, 336 h
Mus musculus [25] = test: Antiarthritic activity in chicken type II collagen-induced arthritis DBA/1 mouse model assessed as reduction in hind paw swelling at 20 mg/kg/day, po administered for 2 weeks by H and E staining based analysis; format: functional, organism-based
[26] = Tmax in male DBA/1 mouse at 20 mg/kg, po measured after 24 hrs by HPLC analysis; format: ADME, organism-based; settings: in vivo
[27] = AUC (0 to t) in male DBA/1 mouse at 20 mg/kg, po measured after 24 hrs by HPLC analysis; format: ADME, organism-based; settings: in vivo
Mus musculus [28] = test: Antiinflammatory activity against imiquimod-induced psoriasis-like skin inflammation in Balb/c mouse model assessed as attenuation of skin layer thickening at 10 mg/kg, IG preadministered with IMQ for 3 days followed by compound administration from day 4 and measured on day 14 by H and E staining based analysis; format: functional, organism-based; settings: time 11.0 day
[29] = Cmax in male DBA/1 mouse at 5 mg/kg, iv measured after 24 hrs by HPLC analysis; format: ADME, organism-based; settings: in vivo
[30] = Toxicity in chicken type II collagen-induced arthritis DBA/1 mouse model assessed as increase in thymic cortex to medulla ratio at 20 mg/kg/day, po administered for 2 weeks by H and E staining based analysis; format: organism-based; settings: in vivo, 336 h
Mus musculus [31] = test: Antiarthritic activity in chicken type II collagen-induced arthritis DBA/1 mouse model assessed as improvement in arthritic symptoms at 20 mg/kg/day, po administered for 2 weeks by H and E staining based analysis; format: functional, organism-based
[32] = Oral bioavailability in male DBA/1 mouse at 20 mg/kg measured after 24 hrs by HPLC analysis; format: ADME, organism-based; settings: in vivo
[33] = Half-life in male DBA/1 mouse at 20 mg/kg, po measured after 24 hrs by HPLC analysis; format: ADME, organism-based; settings: in vivo
Mus musculus [34] = test: as §1, with “decrease” for “reduction”, “IL-23 expression” for “mononuclear cell infiltration”, “immunohistochemical” for “H and E staining based”; format: functional, organism-based; settings: time 11.0 day
[35] = Cmax in male DBA/1 mouse at 20 mg/kg, po measured after 24 hrs by HPLC analysis; format: ADME, organism-based; settings: in vivo
[36] = Toxicity in chicken type II collagen-induced arthritis DBA/1 mouse model assessed as behavioral abnormalities at 20 mg/kg/day, po measured after 42 days; format: organism-based; settings: in vivo, 1008 h, time 42 day

half-life [2]: 3.81 h
AUC(0-inf) [3]: 326 ng·h/mL
AUC(0-inf) [4]: 1310 ng·h/mL
IC50 [5]: 13.6 nM
clearance [7]: 64.2 mL/min/kg
Tmax [13]: 4.98 min
IC50 [20]: 2.5 nM
AUC(0-t) at 24 h [21]: 1270 ng·h/mL
Tmax [26]: 0.417 h
AUC(0-t) at 24 h [27]: 299 ng·h/mL
Cmax [29]: 1280 ng/mL
bioavailability [32]: 6.2%
half-life [33]: 4.99 h
Cmax [35]: 99.3 ng/mL
Structure (SMILES): CCc1ccc(N(CC(C)C)S(=O)(=O)c2ccc(OCC3CCOCC3)c(CO)c2)cc1 [GSK2981278]
Activity [1]: Non-Toxic
Activity (Mus musculus [6]): Active
Activity (Mus musculus [8]): Active
Activity [9]: Non-Toxic
Activity (Mus musculus [10]): Active
Activity (Mus musculus [11]): Active
Activity (Mus musculus [12]): Active
Activity [14]: Non-Toxic
Activity (Mus musculus [15]): Active
Activity (Mus musculus [16]): Active
Activity (Mus musculus [17]): Active
Activity (Mus musculus [18]): Active
Activity [19]: Non-Toxic
Activity (Mus musculus [22]): Active
Activity (Mus musculus [23]): Active
Activity [24]: Non-Toxic
Activity (Mus musculus [25]): Active
Activity (Mus musculus [28]): Active
Activity [30]: Toxic
Activity (Mus musculus [31]): Active
Activity (Mus musculus [34]): Active
Activity [36]: Non-Toxic
